# Measured values: patent US20050009894A1 (Aventis Pharma S.A., priority 2001, published 2005)
# Molecular target: T1, human KDR enzyme (Homo sapiens, UniProt P35968)
# T1 construct: The cytoplasmic domain of human KDR enzyme is cloned in the form of a GST fusion; GST; made in house; host or cells: SF21 insect cells (baculovirus, pFastBac)
# Experiment: Phosphorylation of the substrate PLCγ by the enzyme KDR in vitro (flashplate technique)
# Type: biochemical
# Conditions: Table VII, degrees of activity by IC50 range; read-out: Activity
# Outline: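 GST-fused human KDR cytoplasmic domain (Sf21 baculovirus, ~60% pure; 100 ng/well) phosphorylating 2 μg GST-PLCγ SH2-SH3 fragment in MOPS pH 7.2 with MgCl2/MnCl2, 1 h at 37° C. Started with γ33P-ATP plus cold ATP (2 μM in start solution); flashplate radioactivity. % inhibition vs no-compound control; IC50 from dose-response curves.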
# T1 sequence (P35968 786-1356 limits assumed): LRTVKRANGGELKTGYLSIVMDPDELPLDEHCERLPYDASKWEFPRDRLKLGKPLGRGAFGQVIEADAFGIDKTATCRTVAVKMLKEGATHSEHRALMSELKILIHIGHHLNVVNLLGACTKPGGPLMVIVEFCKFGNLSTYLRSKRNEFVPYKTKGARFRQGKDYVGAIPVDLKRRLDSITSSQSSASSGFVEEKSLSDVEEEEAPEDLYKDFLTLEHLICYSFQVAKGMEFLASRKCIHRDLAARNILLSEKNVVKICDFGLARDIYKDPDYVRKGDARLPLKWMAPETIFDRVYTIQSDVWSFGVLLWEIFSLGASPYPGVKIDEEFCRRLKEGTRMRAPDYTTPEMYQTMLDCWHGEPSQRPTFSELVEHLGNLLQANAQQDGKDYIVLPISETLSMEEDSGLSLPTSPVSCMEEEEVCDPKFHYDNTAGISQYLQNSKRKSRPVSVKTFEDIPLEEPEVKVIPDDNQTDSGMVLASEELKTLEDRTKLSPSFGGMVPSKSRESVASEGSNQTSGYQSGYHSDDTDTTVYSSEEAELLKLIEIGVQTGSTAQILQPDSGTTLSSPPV
row,IC50 [µM],SMILES
1,0.3 to 3,"COc1cccc(-c2ccc3nc(-c4[nH]nc5ccccc45)[nH]c3c2)c1 [Example 114, 3-[6-(3-Methoxy-phenyl)-1H-benzoimidazol-2-yl]-2H-indazole]"
2,0.3 to 3,"Cc1cc(C)cc(-c2ccc3nc(-c4[nH]nc5ccccc45)[nH]c3c2)c1 [Example 115, 3-[6-(3,5-Dimethyl-phenyl)-1H-benzoimidazol-2-yl]-2H-indazole]"
3,> 3,"Cc1ccc(-c2ccc3nc(-c4[nH]nc5ccccc45)[nH]c3c2)cc1C [Example 116, 3-[6-(3,4-Dimethyl-phenyl)-1H-benzoimidazol-2-yl]-2H-indazole]"
4,0.3 to 3,"c1ccc2c(-c3nc4ccc(-c5ccc6c(c5)OCO6)cc4[nH]3)[nH]nc2c1 [Example 117, 3-(6-Benzo[1,3]dioxole-5-yl-1H-benzoimidazol-2-yl)-2H-indazole]"
5,> 3,"CC(C)(C)c1ccc(-c2ccc3nc(-c4[nH]nc5ccccc45)[nH]c3c2)cc1 [Example 118, 3-[6-(4-tert-Butyl-phenyl)-1H-benzoimidazol-2-yl]-2H-indazole]"
6,0.3 to 3,"CCCC/C=C/c1ccc2nc(-c3[nH]nc4ccccc34)[nH]c2c1 [Example 119, 3-(6-Hex-1-enyl-1H-benzoimidazol-2-yl)-2H-indazole]"
7,0.3 to 3,"COc1ccc(-c2ccc3nc(-c4[nH]nc5ccccc45)[nH]c3c2)cc1OC [Example 120, 3-[6-(3,4-Dimethoxy-phenyl)-1H-benzoimidazol-2-yl]-2H-indazole]"
8,0.3 to 3,"Oc1cccc(-c2ccc3nc(-c4[nH]nc5ccccc45)[nH]c3c2)c1 [Example 121, 3-[2-(2H-Indazol-3-yl)-3H-benzoimidazol-5-yl]-phenol]"
9,0.3 to 3,"Oc1ccc(-c2ccc3nc(-c4[nH]nc5ccccc45)[nH]c3c2)cc1 [Example 122, 4-[2-(2H-Indazol-3-yl)-3H-benzoimidazol-5-yl]-phenol]"
10,> 3,"Clc1ccc(-c2ccc3nc(-c4[nH]nc5ccccc45)[nH]c3c2)cc1Cl [Example 123, 3-[6-(3,4-Dichloro-phenyl)-1H-benzoimidazol-2-yl]-2H-indazole]"
11,> 3,"FC(F)(F)Oc1ccc(-c2ccc3nc(-c4[nH]nc5ccccc45)[nH]c3c2)cc1 [Example 124, 3-[6-(4-Trifluoromethoxy-phenyl)-1H-benzoimidazol-2-yl]-2H-indazole]"
12,> 3,"CC(=O)c1ccc(-c2ccc3nc(-c4[nH]nc5ccccc45)[nH]c3c2)cc1 [Example 125, 1-{4-[2-(2H-Indazol-3-yl)-3H-benzoimidazol-5-yl]-phenyl}-ethanone]"
13,> 3,"c1ccc2sc(-c3ccc4nc(-c5[nH]nc6ccccc56)[nH]c4c3)cc2c1 [Example 126, 3-(6-Benzo[b]thiophen-2-yl-1H-benzoimidazol-2-yl)-2H-indazole]"
14,0.3 to 3,"COc1cc(-c2ccc3nc(-c4[nH]nc5ccccc45)[nH]c3c2)cc(OC)c1OC [Example 127, 3-[6-(3,4,5-Trimethoxy-phenyl)-1H-benzoimidazol-2-yl]-2H-indazole]"
15,0.3 to 3,"CC(=O)c1ccc(-c2ccc3nc(-c4[nH]nc5ccccc45)[nH]c3c2)s1 [Example 128, 1-{5-[2-(2H-Indazol-3-yl)-3H-benzoimidazol-5-yl]-thiophen-2-yl}-ethanone]"
16,> 3,"CC(=O)c1cccc(-c2ccc3nc(-c4[nH]nc5ccccc45)[nH]c3c2)c1 [Example 129, 1-{3-[2-(2H-Indazol-3-yl)-3H-benzoimidazol-5-yl]-phenyl}-ethanone]"
17,> 3,"c1ccc(COc2ccc(-c3ccc4nc(-c5[nH]nc6ccccc56)[nH]c4c3)cc2)cc1 [Example 130, 3-[6-(4-Benzyloxy-phenyl)-1H-benzoimidazol-2-yl]-2H-indazole]"

row,IC50 [µM],SMILES
1,> 3,"Fc1cc(-c2ccc3nc(-c4[nH]nc5ccccc45)[nH]c3c2)ccc1-c1ccccc1 [Example 131, 3-[6-(2-Fluoro-biphenyl-4-yl)-1H-benzoimidazol-2-yl]-2H-indazole]"
2,> 3,"c1ccc2c(-c3nc4ccc(-c5csc6ccccc56)cc4[nH]3)[nH]nc2c1 [Example 132, 3-(6-Benzo[b]thiophen-3-yl-1H-benzoimidazol-2-yl)-2H-indazole]"
3,0.3 to 3,"OCc1cccc(-c2ccc3nc(-c4[nH]nc5ccccc45)[nH]c3c2)c1 [Example 133, {3-[2-(2H-Indazol-3-yl)-3H-benzoimidazol-5-yl]-phenyl}-methanol]"
4,> 3,"CCSc1ccc(-c2ccc3nc(-c4[nH]nc5ccccc45)[nH]c3c2)cc1 [Example 134, 3-[6-(4-Ethylsulfanyl-phenyl)-1H-benzoimidazol-2-yl]-2H-indazole]"
5,0.3 to 3,"Fc1ccc(-c2ccc3nc(-c4[nH]nc5ccccc45)[nH]c3c2)c(F)c1 [Example 135, 3-[6-(2,4-Difluoro-phenyl)-1H-benzoimidazol-2-yl]-2H-indazole]"
6,> 3,"FC(F)(F)Oc1cccc(-c2ccc3nc(-c4[nH]nc5ccccc45)[nH]c3c2)c1 [Example 136, 3-[6-(3-Trifluoromethoxy-phenyl)-1H-benzoimidazol-2-yl]-2H-indazole]"
7,0.3 to 3,"Cc1cc(F)ccc1-c1ccc2nc(-c3[nH]nc4ccccc34)[nH]c2c1 [Example 137, 3-[6-(4-Fluoro-2-methyl-phenyl)-1H-benzoimidazol-2-yl]-2H-indazole]"
8,> 3,"Fc1ccc(/C=C/c2ccc3nc(-c4[nH]nc5ccccc45)[nH]c3c2)cc1 [Example 138, 3-{6-[2-(4-Fluoro-phenyl)-vinyl]-1H-benzoimidazol-2-yl}-2H-indazole]"
9,> 3,"Clc1ccc(/C=C/c2ccc3nc(-c4[nH]nc5ccccc45)[nH]c3c2)cc1 [Example 139, 3-{6-[2-(4-Chloro-phenyl)-vinyl]-1H benzoimidazol-2-yl}-2H-indazole]"
10,> 3,"O=C(O)CCc1ccc(-c2ccc3nc(-c4[nH]nc5ccccc45)[nH]c3c2)cc1 [Example 140, 3-{4-[2-(2H-Indazol-3-yl)-3H-benzoimidazol-5-yl]-phenyl}-propionic acid]"
11,0.3 to 3,"OCc1ccc(-c2ccc3nc(-c4[nH]nc5ccccc45)[nH]c3c2)cc1 [Example 141, {4-[2-(2H-Indazol-3-yl)-3H-benzoimidazol-5-yl]-phenyl}-methanol]"
12,0.3 to 3,"c1coc(-c2ccc3nc(-c4[nH]nc5ccccc45)[nH]c3c2)c1 [Example 142, 3-(6-Furan-2-yl-1H-benzoimidazol-2-yl)-2H-indazole]"
13,> 3,"c1ccc(COc2cccc(-c3ccc4nc(-c5[nH]nc6ccccc56)[nH]c4c3)c2)cc1 [Example 143, 3-[6-(3-Benzyloxy-phenyl)-1H-benzoimidazol-2-yl]-2H-indazole]"
14,0.3 to 3,"CC(C)c1ccc(-c2ccc3nc(-c4[nH]nc5ccccc45)[nH]c3c2)cc1 [Example 144, 3-[6-(4-Isopropyl-phenyl)-1H-benzoimidazol-2-yl]-2H-indazole]"
15,> 3,"CS(=O)(=O)c1ccc(-c2ccc3nc(-c4[nH]nc5ccccc45)[nH]c3c2)cc1 [Example 145, 3-[6-(4-Methanesulfonyl-phenyl)-1H-benzoimidazol-2-yl]-2H-indazole]"
16,0.3 to 3,COc1coc(CNC(=O)c2ccc3[nH]c(-c4n[nH]c5ccccc45)nc3c2)cc1=O [Example 146]
17,0.3 to 3,"CC(=O)Nc1ccc(CNC(=O)c2ccc3[nH]c(-c4n[nH]c5ccccc45)nc3c2)cc1 [Example 147, 2-(1H-Indazol-3-yl)-1H-benzoimidazole-5-carboxylic acid 4-acetylamino-benzylamide]"
